The values that follow come from PMC4569415, “Pro-Oxidant Activity of Amine-Pyridine-Based Iron Complexes Efficiently Kills Cancer and Cancer Stem-Like Cells” (PLoS ONE, 2015).

The test system of data set [1] is CCD-18Co. The data set can be described thus: MTT cytotoxicity assay. In kind it is cell-based. As to conditions: Homo sapiens, 48 h of treatment, non malignant cells. On the procedure:
(§1) The cytotoxic activity of the compounds was determined by MTT reduction assay as described. Compounds were diluted in Milli-Q water to obtain 1 mmol/L stock solutions. Appropriate aliquots of these solutions were diluted in the corresponding cell culture medium to obtain the final working concentrations. Aliquots of 5000 1BR3G cells, 6000 MCF-7, 6000 PC-3 cells, 10 000 CAPAN-1 cells, 4000 MCF 10A cells, 4000 HMLE cells or 4000 CCD-18Co cells were seeded in 96-well plates, 24 h prior to the treatments. Hematological cell lines were seeded at 400 000 cells/mL. Cells were treated with the corresponding compound at concentrations ranging from 0 to 100 μmol/L for 48 h. Three replicates for each compound were used. The IC50 was established for each compound by standard non-linear regression and curve fitting using GraphPad Prism (Graph Pad software Inc., La Jolla, CA, USA).
On the technique in general: Tetrazolium assays rely on reduction of a dye to a coloured formazan, in cell work by metabolically active cells.

In data set [2] the test system is HMLE. The data set can be described thus: MTT cytotoxicity assay. In kind it is cell-based. As to conditions: Homo sapiens, 48 h of treatment, non malignant cells. On the procedure:
as §1

The test system of data set [3] is JURKAT. The data set can be described thus: MTT cytotoxicity assay. In kind it is cell-based. As to conditions: Homo sapiens, 48 h of treatment. On the procedure: as §1
Data set [4] relates to 1BR3G. The data set can be described thus: MTT cytotoxicity assay. In kind it is cell-based. As to conditions: Homo sapiens, 48 h of treatment, non malignant cells. On the procedure: as §1
Data set [5] deals with PC-3. The data set can be described thus: MTT cytotoxicity assay. As to conditions: Homo sapiens, 48 h of treatment. In kind it is cell-based. On the procedure: as §1
The subject of data set [6] is Z-138. Briefly: MTT cytotoxicity assay. In kind it is cell-based. As to conditions: Homo sapiens, 48 h of treatment. On the procedure: as §1
Data set [7] concerns MCF-10A. The data set can be described thus: MTT cytotoxicity assay. In kind it is cell-based. As to conditions: Homo sapiens, 48 h of treatment, non malignant cells. On the procedure:
as §1

Data set [8] deals with CAPAN-1 cells. Briefly: Cellular labile iron pool with calcein-AM. In kind it is cell-based, human. As to conditions: CAPAN-1, 10 μmol/L, 24 h. On the procedure: The cellular labile iron pool was determined with calcein-AM. CAPAN-1 cells (125 000 cells/ well) were seeded in 24-well plates and incubated for 24 h. Then, cells were treated for 24 h with 10 μmol/L of compound 1, 2 or 5 at 37°C. In some experiments, cells were incubated for 2 h with 100 μmol/L of DFO or 100 μmol/L FeCl2. Cells exposed to the vehicle alone were used as a control. After treatments, cells were washed with PBS and incubated with calcein-AM (0.25 μmol/L) for 30 min at 37°C in the dark. Subsequently, cells were washed and collected with trypsin and the geometric mean fluorescence intensity of 10 000 cells was determined by flow cytometry as described.

For data set [9], the system named is human leukemia, lymphoma and glioma cancer cells. The data set can be described thus: MTT cell viability at 10 μmol/L, cell line panel. As to conditions: 48 h. In kind it is cell-based. On the procedure:
as §1
(§2) Fig 2 Cell viability assay. (A) Cytotoxic activity of compounds 1, 2, and 5 against cancer cells. The indicated cell lines were treated for 48 h with ligands (10 μmol/L) and cell viability was measured with the MTT assay. Data represents the percentage of viable cells relative to untreated cells (control). (B) Cytotoxicity of doxorubicin and compounds 1, 2 and 5 against CS-like cells. CS-like HMLER-shEcad cells and non-CS-like HMLER isogenic parental cells were treated for 48 h with graded concentrations of doxorubicin, 1, 2 and 5. Cell viability was measured with the MTT assay. For each treatment, the percentage of viable cells relative to untreated cells is indicated. Data represents the mean±SD of 3 independent experiments performed in triplicate.

Data set [10] relates to MCF-7 cells. Briefly: Colony formation (clonogenic) assay. In kind it is cell-based, human. As to conditions: 10 μmol/L. On the procedure: MCF-7 cells were seeded in 12-well plates. […] Subsequently, cells were washed with PBS, collected with trypsin and plated at low density (3000 cells in a […]). Cells were allowed to divide and form colonies for 7–10 days; after which, colonies were fixed and stained with 2% methylene blue in 50% ethanol. The number of colonies in each plate was determined using the Alpha Innotech Imaging system (Alpha Innotech, San Leandro, CA).

The subject of data set [11] is MCF-7 cells. Briefly: MTT cytotoxicity assay. As to conditions: for IC50: Homo sapiens, MCF7, MTT, 48 h of compound exposure. In kind it is cell-based, human. On the procedure: as §1
For data set [12], the system named is CAPAN-1 cells. The data set can be described thus: MTT cytotoxicity assay. In kind it is cell-based, human. As to conditions: for viability at 10 µM / IC50 / viability at 5 µM: Homo sapiens; for viability at 10 µM: CAPAN-1, compound 10 μmol/L; for viability at 10 µM / viability at 5 µM: read-out: CAPAN-1 cell viability; for IC50: CAPAN-1, MTT, 48 h of compound exposure; for viability at 5 µM: CAPAN-1, compound 5 μmol/L. On the procedure:
as §1

Data set [13] is described as follows: Hemolytic assay. In kind it is cell-based. As to conditions: human, erythrocyte suspension of fresh human blood (5% vol/vol). On the procedure: The hemolytic activity of the compounds at 100 μmol/L was evaluated by determining hemoglobin release from erythrocyte suspensions of fresh human blood (5% vol/vol) as described.
Data set [14] deals with HMLER cells. Briefly: MTT cytotoxicity assay in non-CS-like parental cells. In kind it is cell-based. As to conditions: Homo sapiens, 48 h. On the procedure:
as §1, §2

In data set [15] the test system is CS-like HMLER-shEcad cells. The data set can be described thus: MTT cytotoxicity assay in cancer stem-like cells. In kind it is cell-based, human. As to conditions: Homo sapiens, 48 h. On the procedure:
as §1, §2

The subject of data set [16] is tumor (PC-3, Z-138 and JURKAT) cell lines. Briefly: MTT cytotoxicity assay, tumor cell selection. In kind it is cell-based. As to conditions: Homo sapiens, range over PC-3, Z-138 and JURKAT, 48 h, read-out: IC50 values against tumor cells (range). On the procedure:
as §1

Data set [17] concerns caspase 3/7. Briefly: Caspase-Glo 3/7 luminometric assay. As to conditions: 10 μmol/L, 48 h, panel of human cancer cell lines. In kind it is cell-based. On the procedure: Enzymatic caspase activity was determined after exposing the cells to compound 1, 2 and 5 at 10 μmol/L for 48 h. Caspase 3/7 activity was measured with the luminometric Caspase-Glo 3/7assay (Promega, Madison, WI, USA) using a Synergy HT multi-detection microplate reader (Bio-Tek).

The test system of data set [18] is MCF-7 cells. The data set can be described thus: ROS measurement with H2DCFDA. As to conditions: MCF-7, 10 μmol/L, 24 h. In kind it is cell-based, human. On the procedure: (§3) Cellular ROS content was determined using the 2′,7′-dichlorodihydrofluorescein diacetate probe (H2DCFDA). Cells were seeded in 24-well plates (50 000 cells/well) in phenol red-free DMEM 24 h prior to treatments. Cells were treated with different concentrations of compound 1, 2 and 5 (2.5, 5 or 10 μmol/L) or vehicle alone as a control, for 5 or 24 hours at 37°C. In some experiments, cells were co-treated with the compounds plus 5 mmol/L NAC. After treatments, cells were washed with PBS and incubated with 1 μmol/L H2DCF-DA in PBS for 30 minutes in the dark. After washing, cells were collected with trypsin and analyzed by flow cytometry using a FACS-Calibur flow cytometer (Becton-Dickinson®, Immunofluorometry Systems, Mountain View, CA, USA). The geometric mean fluorescence intensity of 10 000 cells was established using CellQuestTM software (Becton Dickinson). The fluorescence fold-increase versus untreated cells was determined for each treatment.

The subject of data set [19] is JURKAT cells. Briefly: ROS measurement with H2DCFDA. In kind it is cell-based, human. As to conditions: 10 μmol/L, 24 h. On the procedure:
as §3

Where [20] appears, read: compound 10 μmol/L, FeCl2 100 μmol/L pre-incubation.
The mark [21] stands for this setting: compound 5 μmol/L, pretreated with 100 μmol/L FeCl2 for 2 h.

The structures appear in SMILES notation. Several values for one entry are separate records, joined by “and”; a condition that tells them apart may be missing. Equal values may be shown once. Read-outs that look alike come from different tables or passages of the source.

One may read the IC50 as the concentration that inhibits the measured activity by half. Usually viability stands for the share of living cells, or the viability signal relative to a control. With `c1ccc(CN2CCC[C@H]2[C@@H]2CCCN2Cc2ccccn2)nc1` [Compound 1], the half-maximal inhibitory concentration (IC50) in data set [1] was determined as 27 ± 4.4 µM; in data set [2] it was 6.4 ± 4 µM; in data set [3], 15.1 ± 3.1 µM; in data set [4], 12.7 ± 1.6 µM; in [5], 8.5 ± 1.4 µM; in data set [6], 4.8 ± 1.2 µM. In addition, the 50% inhibitory concentration (IC50) was 18.8 ± 2.9 µM in data set [7]; 7.4 ± 0.2 µM in [11]; 9.9 ± 1.01 µM in data set [12]; 6.5 ± 0.4 µM in data set [14]; 5.3 ± 0.7 µM in data set [15]; 4.8 to 15.1 µM in data set [16]. The “calcein fluorescence intensity, % of untreated cells” value (“calcein fluorescence intensity, %” below) in data set [8] is recorded as 141.4±19.5%. Moreover, in [9], the “antiproliferative activity at 10 μmol/L” value is on record as “high antiproliferative activity”. The “reduction of colony number vs control” value in [10] (3 h exposure) was 0%; in data set [10] (5 h exposure), 18.7%; in data set [10] (12 h exposure), 40.5%; in data set [10] (24 h exposure), 57% and 56.6%. In addition, the “enhancement of cytotoxicity by FeCl2 pretreatment, MCF-7” value in data set [11] (setting [20]) amounted to 58.6%. The viability at 10 µM was found to be 45.2 ± 5.4% in [12] (presence of NAC) and 40.7 ± 6.9% in data set [12] (without NAC). In addition, the “enhancement of cytotoxicity by FeCl2 pretreatment, CAPAN-1” value in data set [12] (setting [20]) is given as 25.5%. For the same compound, in data set [13], the hemolysis at 100 µM is 0%. Also, the “caspase 3/7 activation” value in [17] was “significant caspase 3/7 activation in lymphoma (Z-138, Jeko-1, Granta and SP-53) but not in leukemia (JURKAT) or glioma (LN229 and U87MG) cell lines”.

Take `CN(C)c1ccnc(CN2CCC[C@H]2[C@@H]2CCCN2Cc2cc(N(C)C)ccn2)c1` [Compound 2]: the half-inhibitory concentration (IC50) in data set [1] came out at 20.7 ± 0.3 µM; in [2], 7 ± 0.3 µM; in data set [3] it was 7.2 ± 1.9 µM; in data set [4], 7.5 ± 0.5 µM; in [5], 3.8 ± 0.2 µM; in data set [6], 4.4 ± 0.3 µM. The IC50 was 6.5 ± 1.3 µM in [7]; 3.7 ± 0.4 µM in data set [11]; 6 ± 0.7 µM in data set [12]; 6.6 ± 0.3 µM in data set [14]; 6.8 ± 0.1 µM in data set [15]; 3.8 to 7.2 µM in data set [16]. Further, the “calcein fluorescence intensity, %” value in data set [8] is 136.8±11.7%. Moreover, in [9], the “antiproliferative activity at 10 μmol/L” value is on record as “high antiproliferative activity”. Besides, in [18], the “increase in ROS levels” value is on record as 7 fold. Besides, the “ROS levels versus control cells” value in data set [19] was found to be 1.94 folds. Besides, the “reduction of colony number vs control” value in data set [10] (3 h exposure) is recorded as 39%; in data set [10] (24 h exposure), “almost abolished”. Besides, the “reduction in MCF-7 cell viability in FeCl2-pretreated cells” value in data set [11] (setting [21]) came out at 51.8%. In addition, the viability at 5 µM came out at 23.9 ± 2.9% in data set [12] (absence of NAC) and 33.6 ± 3.8% in data set [12] (presence of 5 mmol/L NAC). In addition, the “increase in cell survival by NAC” value in [12] (compound 5 μmol/L, 5 mmol/L NAC) is 40.6%. In data set [12] (setting [21]), the “reduction in CAPAN-1 cell viability in FeCl2-pretreated cells” value came to 37.7%. The compound also showed a hemolysis at 100 µM in [13] of 0%. The “caspase 3/7 activation” value in [17] is “clearly increased caspase 3/7 activity in all cell lines”.

For `CN1CCN(Cc2ccccn2)CCN(Cc2ccccn2)CC1` [Compound 5], the IC50 was found to be 53.5 ± 3.5 µM in data set [1]; 6.1 ± 0.1 µM in [2]; 5.4 ± 1.3 µM in data set [3]; 18 ± 4.2 µM in data set [4]; 7.7 ± 0.3 µM in data set [5]; 2.9 ± 0.4 µM in data set [6]. The IC50 in data set [7] is 23.8 ± 1.3 µM; in [11], 7.7 ± 0.3 µM; in data set [12], 7.9 ± 0.5 µM; in [14], 5.1 ± 0.1 µM; in data set [15], 8.6 ± 0.5 µM; in data set [16], 2.9 to 7.7 µM. For the same compound, the “calcein fluorescence intensity, %” value in [8] is on record as 144.6±13.8%. Moreover, the “antiproliferative activity at 10 μmol/L” value in data set [9] is on record as “high antiproliferative activity”. For the same compound, the “reduction of colony number vs control” value in [10] (24 h exposure) stood at 53%. For the same compound, in data set [12] (CAPAN-1, NAC 5 mmol/L), the “effect of NAC on cytotoxicity” value is given as “no protective effect of NAC”. The compound also had a hemolysis at 100 µM in data set [13] of 0%. For the same compound, the “caspase 3/7 activation” value in data set [17] is “activating caspase 3/7 in most cell lines except PC-3 cells”.
